Values of other authors as cited in patent US8753875B2, “Compositions and means for diagnosing microbial infections” (priority 2007, dated 2014).
Where two headings read alike, the source gives them in different places.

Tests used:
[1] = tested on: E. coli; conditions: cited from earlier work
[2] = tested on: E. coli; conditions: 1142 E. coli outpatient urinary isolates, USA and Canada; cited from earlier work

Compound	Antimicrobial resistance of E. coli (resistance in percent) ([1]; Austria, n 126) [%]	Antimicrobial resistance of E. coli (resistance in percent) ([1]; Belgium, n 137) [%]	Antimicrobial resistance of E. coli (resistance in percent) ([1]; Canada, n 166) [%]	Antimicrobial resistance of E. coli (resistance in percent) ([1]; Denmark, n 85) [%]	Antimicrobial resistance of E. coli (resistance in percent) ([1]; Finland, n 182) [%]	Antimicrobial resistance of E. coli (resistance in percent) ([1]; France, n 199) [%]	Antimicrobial resistance of E. coli (resistance in percent) ([1]; Germany, n 138) [%]	Antimicrobial resistance of E. coli (resistance in percent) ([1]; Greece, n 132) [%]	Antimicrobial resistance of E. coli (resistance in percent) ([1]; Ireland, n 154) [%]	Antimicrobial resistance of E. coli (resistance in percent) ([1]; Luxembourg, n 24) [%]	Antimicrobial resistance of E. coli (resistance in percent) ([1]; Norway, n 168) [%]	Antimicrobial resistance of E. coli (resistance in percent) ([1]; Portugal, n 86) [%]	Antimicrobial resistance of E. coli (resistance in percent) ([1]; Spain, n 191) [%]	Antimicrobial resistance of E. coli (resistance in percent) ([1]; Sweden, n 193) [%]	Antimicrobial resistance of E. coli (resistance in percent) ([1]; Switzerland, n 122) [%]	Antimicrobial resistance of E. coli (resistance in percent) ([1]; The Netherlands, n 195) [%]	Antimicrobial resistance of E. coli (resistance in percent) ([1]; Total, n 2478) [%]	Antimicrobial resistance of E. coli (resistance in percent) ([1]; United Kingdom, n 180) [%]	Overall resistance in E. coli [2] [%]
CCn1cc(C(=O)O)c(=O)c2ccc(C)nc21 [NAL, 1-ethyl-7-methyl-4-oxo-[1,8]naphthyridine-3-carboxylic acid]	2.4	6.6	0.6	3.5	1.6	3.5	3.6	6.8	1.9	8.3	1.2	11.6	26.7	2.6	6.6	5.1	5.4	2.2	
Cc1cc(NS(=O)(=O)c2ccc(N)cc2)no1 [SUL, 4-amino-N-(5-methylisoxazol-3-yl)-benzenesulfonamide]	25.4	32.8	25.3	21.2	15.4	31.7	34.8	19.7	40.3	25.0	25.0	44.2	48.7	16.6	31.1	25.6	29.1	31.7	
C[C@H]1COc2c(N3CCN(C)CC3)c(F)cc3c(=O)c(C(=O)O)cn1c23 [levofloxacin, (−)-(S)-9-fluoro-2,3-dihydro-3-methyl-10-(4-methyl-1-piperazinyl)-7-oxo-7H-pyrido [1,2,3-de]-1,4-benzoxazine-6-carboxylic acid]																			5.1
co-amoxiclav [AMC]	2.4	2.9	3.6	1.2	4.9	1.5	2.2	0.8	5.8	0	3.6	9.3	4.2	5.7	2.5	2.6	3.4	2.8	
trimethoprim/sulfamethoxazole [SXT]	9.5	14.6	12.0	8.2	4.9	15.1	21.0	11.4	20.8	16.7	11.3	26.7	25.7	8.3	18.9	10.3	14.1	12.2	21.3
